Measurements from patent US20130131128A1, “ASSOCIATION OF XANTHINE OXIDASE INHIBITORS AND ANGIOTENSIN II RECEPTOR ANTAGONISTS AND USE THEREOF” (MENARINI INTERNATIONAL OPERATIONS LUXEMBOURG S.A., priority 2010, published 2013).

Assays:
30 hypertensive subjects = settings: monotherapy, only teenagers; cited from earlier work
[1] = test system: spontaneously hypertensive rat (SHR); assay: Systolic pressure (SBP) by tail cuff sphygmomanometer in conscious spontaneously hypertensive rats; type: in vivo; settings: for SBP / Δ SBP: SHR + K oxonate; for SBP: 4 hours after last dose; for Δ SBP: difference vs Control + K oxonate; for Effect on systolic pressure (in words): 1-3-10 mg/kg per os, daily for 1 week, SHR
Procedure: (§1) Pharmacological activity of febuxostat and olmesartan medoxomil, alone or in association, was assessed in an experimental model of hyperuricemia in spontaneously hypertensive rat (SHR, Harlan Laboratories, Udine, Italy). Systolic pressure (SBP) was measured in non-anesthesized animals by means of a tail cuff sphygmomanometer (Blood Pressure Analysis System BP-2000, Visitech Systems, USA) equipped with an automatic system for data acquisition and processing.
(§2) All animals were preconditioned daily for 2 weeks to accustom them to instrumental measuring of the pressure before starting the test. Hyperuricemia was induced with administration of potassium oxonate (250 mg/kg IP, 2 hours after the last dose of drugs and 2 hours before the test), an uricase inhibitor capable of inducing experimental hyperuricemia. Plasma levels of uric acid were measured with a standard colorimetric enzymatic method. Febuxostat and/or olmesartan were administered orally once per day for 7 days, by gavage, at the doses of 1-3-10 mg/kg.
(§3) Parameters measured in conscious rats were systolic pressure (SBP) and plasma uric acid/urate levels (uricemia), as well as basal values, both after one week of treatment and 2 hours after administration of potassium oxonate. Blood was collected from a tail vein.
(§4) Uricemia and systolic pressure values were recorded 4 hours after the last dose of drugs or vehicle. Potassium oxonate (250 mg/kg IP) was administered 2 ore before the test. Each value is the average of 7-13 tests.

[2] = test system: spontaneously hypertensive rat (SHR); assay: Plasma uric acid (uricemia) in potassium oxonate-induced hyperuricemia in spontaneously hypertensive rats; type: in vivo; settings: for Uricemia: SHR + K oxonate 250 mg/kg IP, 4 hours after last dose; for Δ Uricemia: SHR + K oxonate, difference vs Control + K oxonate; for Effect on hyperuricemia values (in words): oral, one week before potassium oxonate, 1-3-10 mg/kg, SHR
Procedure: as §1, §2, §3, §4

hyperuricemia = settings: clinical studies; cited from earlier work
[3] = 1 mg/kg day per os for one week
[4] = 3 mg/kg day per os for one week
[5] = 10 mg/kg day per os for one week

SMILES | Anti-hypertensive effect (in words) (30 hypertensive subjects) | SBP [1, 3] [mmHg] | Δ SBP [1, 3] [mmHg] | SBP [1, 4] [mmHg] | Δ SBP [1, 4] [mmHg] | SBP [1, 5] [mmHg] | Δ SBP [1, 5] [mmHg] | Effect on systolic pressure (in words) [1] | Uricemia [2, 3] [mg/dL] | Δ Uricemia [2, 3] [mg/dL] | Uricemia [2, 4] [mg/dL] | Δ Uricemia [2, 4] [mg/dL] | Uricemia [2, 5] [mg/dL] | Δ Uricemia [2, 5] [mg/dL] | Effect on hyperuricemia values (in words) [2] | Reduction of hyperuricemia compared with allopurinol (in words) (hyperuricemia)
Oc1ncnc2[nH]ncc12 [allopurinol] | has shown an anti-hypertensive effect | – | – | – | – | – | – | – | – | – | – | – | – | – | – | –
CCCc1nc(C(C)(C)O)c(C(=O)OCc2oc(=O)oc2C)n1Cc1ccc(-c2ccccc2-c2nnn[nH]2)cc1 [Olmesartan, olmesartan medoxomil] | – | 217 ± 14 | −22 | 202 ± 10 | −37 | 180 ± 11 | −59 | reduced systolic pressure in a dose-dependent manner | 1.16 ± 0.11 | -0.01 | 1.10 ± 0.12 | -0.07 | 1.08 ± 0.07 | -0.09 | weakly active | –
Cc1nc(-c2ccc(OCC(C)C)c(C#N)c2)sc1C(=O)O [Febuxostat, febuxostat] | – | 234 ± 19 | −5 | 229 ± 24 | −10 | 228 ± 21 | −11 | slight inhibitory effect on systolic pressure | 1.02 ± 0.07 | -0.15 | 0.78 ± 0.06 | -0.39 | 0.49 ± 0.05 | -0.68 | reduced in a significant and dose-dependent manner the hyperuricemia values | reduce hyperuricemia more effectively than allopurinol
